Series [1] addresses T1, HCV polymerase (NS5B570n-Con1) (Hepatitis C virus genotype 1b, UniProt Q9WMX2).
T1 construct: a 21 amino acid C-terminal deletion of full-length HCV polymerase; made in house; host or cells: E. coli BL21(DE3) pLysS, plasmid pET17b
As to the kind of experiment: biochemical. The arrangement: species or system HCV Con1 strain. The method, then: The enzymatic activity of HCV polymerase (NS5B570n-Con1) was measured as the incorporation of radiolabeled nucleotide monophosphates into acid insoluble RNA products. Unincorporated radiolabeled substrate was removed by filtration and scintillant was added to the washed and dried filter plate containing radiolabeled RNA product. The amount of RNA product generated by NS5B570n-Con1 at the end of the reaction was directly proportional to the amount of light emitted by the scintillant.
The HCV polymerase used in the enzymatic activity assay is a 21 amino acid C-terminal deletion of full-length HCV polymerase derived from HCV Con1 strain, genotype 1b (GenBank accession number AJ242654) (NS5B570n-Con1). The NS5B570n-Con1 was sub-cloned downstream to the T7 promoter of the plasmid expression construct pET17b and transformed into E. coli strain BL21(DE3) pLysS for protein expression. A single colony was used to start an innoculum for a 10 L culture in LB media supplemented with 100 μg/mL ampicillin at 37° C. Protein expression was induced by the addition of 0.25 mM isopropyl-β-D-thiogalactopyranoside (IPTG) when the optical density of the culture at […] was 0.8. Induction of protein expression was carried out at 30° C. for 16 h after which the cells were harvested by centrifugation. NS5B570n-Con1 was purified to homogeneity using a three-column purification protocol including subsequent column chromatography on Ni-NTA, SP-Sepharose HP and Superdex 75 resins.
Enzymatic reactions in the presence of cIRES RNA template (see section [0300]) contained 20 nM cIRES RNA, 20 nM NS5B570n-Con1 enzyme, 0.5 μCi of tritiated UTP (Perkin Elmer catalog no. TRK-412; specific activity: 30 to 60 Ci/mmol), 1 μM each ATP, CTP, and GTP, 40 mM Tris-HCl pH 8.0, 40 mM NaCl, 4 mM DTT (dithiothreitol), 4 mM MgCl2, 5 μl of compound serial diluted in DMSO, and nuclease-free water to a final reaction volume of 50 μl. Enzymatic reactions in the presence of 20 nM cIRES template, 20 nM NS5B570n-Con1 enzyme, 1 μCi of tritiated UTP (Perkin Elmer catalog no. TRK-412; specific activity: 30 to 60 Ci/mmol), 40 mM Tris-HCl pH 8.0, 40 mM NaCl, 4 mM DTT (dithiothreitol), 4 mM MgCl2, 5 μl of compound serial diluted in DMSO, and nuclease-free water to a final reaction volume of 50 μl. Reaction mixtures were assembled in 96-well filter plates (cat #MADVNOB, Millipore Co.) and incubated for 2 h at 30° C. Reactions were stopped by addition of 10% final (v/v) trichloroacetic acid and incubated for 40 min at 4° C. Reactions were filtered, washed with 8 reaction volumes of 10% (v/v) trichloroacetic acetic acid, 4 reaction volumes of 70% (v/v) ethanol, air dried, and 25 μl of scintillant (Microscint 20, Perkin-Elmer) was added to each reaction well.
Two RNA templates can be used to assay compounds described herein. The cIRES RNA template is 377 nucleotide long and consisting of a partial complementary sequence (36 nucleotides) of the core protein, followed by 341 nucleotide of the complementary sequence of the internal ribosome entry site. The poly A RNA template (GE Amersham catalog number 27-4110) was a homopolymeric RNA pre-annealed to a oligo(rU)16 primer at a molar ratio of 3-to-1 (primer-template). The cIRES template was used in the assay unless otherwise noted.
The amount of light emitted from the scintillant was converted to counts per minute (CPM) on a Topcount® plate reader (Perkin-Elmer, Energy Range: Low, Efficiency Mode Normal, Count Time: 1 min, Background Subtract: none, Cross talk reduction: Off).
Data was analyzed in Excel® (Microsoft®) and ActivityBase® (Idbs®). The reaction in the absence of enzyme was used to determine the background signal, which was subtracted from the enzymatic reactions. […] All data was expressed as a percentage of the positive control. The compound concentration at which the enzyme-catalyzed rate of RNA synthesis was reduced by 50% (IC50) was calculated by fitting

Consider `COCc1cc(CNS(C)(=O)=O)ccc1-c1coc2c(C(C)(C)C)cc(-c3ccc[nH]c3=O)cc12` [Compound I-97, N-{4-[7-tert-Butyl-5-(2-oxo-1,2-dihydro-pyridin-3-yl)-benzofuran-3-yl]-3-methoxymethyl-benzyl}-methanesulfonamide], for which the melting point was 128 to 130 °C. The IC50 in series [1] amounted to 515 nM.

`CC(C)(C)c1cc(-c2ccc[nH]c2=O)cc2c(C(=O)N3CC(O)C3)coc12` [Compound I-102]: the melting point lay within 264 to 266 °C. For the same molecule, in series [1], 135 nM corresponded to half-maximal inhibition (IC50).

For the molecule `CN(Cc1ccc(-c2coc3c(C(C)(C)C)cc(-c4ccc[nH]c4=O)cc23)cc1)S(C)(=O)=O` [Compound I-77], the melting point was 243 to 245 °C. The IC50 in series [1] was 36 nM.

Turning to `CC(C)(C)c1cc(-c2ccc[nH]c2=O)cc2c(C(=O)N3CCC[C@@H]3CNS(C)(=O)=O)csc12` [Compound 116, N-{(R)-1-[7-tert-Butyl-5-(2-oxo-1,2-dihydro-pyridin-3-yl)-benzo[b]thiophene-3-carbonyl]-pyrrolidin-2-ylmethyl}-methanesulfonamide], the melting point is 289 to 291 °C. For the same molecule, in series [1], the IC50 worked out at 4 nM.

On to `CC(C)(C)c1cc(-c2ccc[nH]c2=O)cc2c(C(=O)Nc3cccc(NS(C)(=O)=O)c3)coc12` [Compound I-83], for which the melting point lay within 290 to 291 °C. Besides, the half-maximal inhibitory concentration (IC50) in series [1] amounted to 201 nM.

`CC(C)(C)c1cc(-c2cc(F)c[nH]c2=O)cc2c(C(=O)N3CC[C@H](CNS(C)(=O)=O)C3)coc12` [Compound I-92] returned a melting point of 296 to 298 °C. The half-maximal inhibitory concentration (IC50) in series [1] was 29 nM.

`CC(C)(C)c1cc(-c2ccc[nH]c2=O)cc2c(-c3cnc(N)nc3)coc12` [Compound I-89] gave a melting point above 300 °C. Further, inhibition in series [1] was half-maximal at 690 nM (IC50).

In turn, `CC(C)(C)c1cc(-c2ccc[nH]c2=O)cc2c(C(=O)N3CC[C@H](CNS(C)(=O)=O)C3)coc12` [Compound I-72] gave a melting point of 258 to 260 °C. The molecule also returned an IC50 in series [1] of 8 nM.

`CC(C)(C)c1cc(-c2ccc[nH]c2=O)cc2c(-c3ccccc3)coc12` [Compound I-24] had a melting point of 257 to 258 °C. Besides, the IC50 in series [1] was 19 nM.

In turn, `CC(C)(C)c1cc(-c2ccc[nH]c2=O)cc2c(C(=O)Nc3nccs3)coc12` [Compound I-84] displayed a melting point above 300 °C. For the same molecule, half-maximal inhibition in series [1] (IC50) was put at 357 nM.

Regarding `CC(C)(C)c1cc(-c2ccc[nH]c2=O)cc2c(C(=O)N3CCC3)coc12` [Compound I-94], the melting point is above 300 °C. Further, in series [1], the IC50 amounted to 148 nM.

`CC(C)(C)c1cc(-c2ccc[nH]c2=O)cc2c(C(=O)N3CCC[C@H](N)C3)coc12` [Compound I-41] gave a melting point of 269 to 270 °C. Further, the IC50 in series [1] was 126 nM.

In the case of `CC(C)(C)c1cc(-c2ccc[nH]c2=O)cc2c(C(=O)N3CCCC(CN)C3)coc12` (stereo not drawn) [Compound I-50], the melting point lay in the range of 150 to 155 °C. For the same molecule, the IC50 in series [1] came out at 51 nM.

Consider `CC(C)(C)c1cc(-c2ccc[nH]c2=O)cc2c(CC(=O)O)coc12` [Compound I-6, [7-tert-Butyl-5-(2-oxo-1,2-dihydro-pyridin-3-yl)-benzofuran-3-yl]-acetic acid], for which the melting point lay in the range of 233 to 234 °C. In series [1], this molecule returned a 50% inhibitory concentration (IC50) of 358 nM.

As for `CC(C)(C)c1cc(-c2ccc[nH]c2=O)cc2ccoc12` [Compound I-2, 3-(7-tert-Butyl-benzofuran-5-yl)-1H-pyridin-2-one], the melting point lay in the range of 217 to 218 °C. Further, the IC50 in series [1] amounted to 202 nM.

With `CCS(=O)(=O)NC[C@H]1CCN(C(=O)c2coc3c(C(C)(C)C)cc(-c4ccc[nH]c4=O)cc23)C1` [Compound I-106], the melting point fell in the range of 240 to 242 °C. In addition, 17 nM corresponded to half-maximal inhibition in series [1] (IC50).

As to `Cc1ccc(-c2cc(C(C)(C)C)c3occ(C(=O)N4CC[C@H](CNS(C)(=O)=O)C4)c3c2)c(=O)[nH]1` [Compound I-98], the melting point lay within 178 to 180 °C. For the same molecule, in series [1], 16 nM corresponded to half-maximal inhibition (IC50).

Consider `CN(C[C@H]1CCN(C(=O)c2coc3c(C(C)(C)C)cc(-c4ccc[nH]c4=O)cc23)C1)S(C)(=O)=O` [Compound I-105, N-{(S)-1-[7-tert-Butyl-5-(2-oxo-1,2-dihydro-pyridin-3-yl)-benzofuran-3-carbonyl]-pyrrolidin-3-ylmethyl}-N-methyl-methanesulfonamide], for which the melting point is 155 to 157 °C. The molecule further gave an IC50 in series [1] of 25 nM.

With `CC(NS(C)(=O)=O)c1ccc(-c2coc3c(C(C)(C)C)cc(-c4ccc[nH]c4=O)cc23)cc1` (stereo not drawn) [Compound I-88, N-(1-{4-[7-tert-Butyl-5-(2-oxo-1,2-dihydro-pyridin-3-yl)-benzofuran-3-yl]-phenyl}-ethyl)-methanesulfonamide], the melting point fell in the range of 255 to 257 °C. The IC50 in series [1] is 8 nM.

The molecule `CC(C)(C)c1cc(-c2ccc[nH]c2=O)cc2c(C(=O)N3CC(CO)C3)coc12` [Compound I-95] had a melting point of 292 to 293 °C. For the same molecule, the IC50 in series [1] came to 43 nM.

The molecule `CN(CC1CCCN(C(=O)c2coc3c(C(C)(C)C)cc(-c4ccc[nH]c4=O)cc23)C1)S(C)(=O)=O` (stereo not drawn) [Compound I-104] displayed a melting point of 155 to 157 °C. Also, it took 20 nM to reach half-maximal inhibition in series [1] (IC50).

As for `CC(C)(C)c1cc(-c2ccc[nH]c2=O)cc2c(-c3cccc(NS(C)(=O)=O)c3)coc12` [Compound I-82, N-{3-[7-tert-Butyl-5-(2-oxo-1,2-dihydro-pyridin-3-yl)-benzofuran-3-yl]-phenyl}-methanesulfonamide], the melting point was in the range of 227 to 230 °C. The molecule further yielded an IC50 in series [1] of 113 nM.

Molecule `CC(C)(C)c1cc(-c2ccc[nH]c2=O)cc2c(C(=O)c3cccc(O)c3)coc12` [Compound I-36, 3-[7-tert-Butyl-3-(3-hydroxy-benzoyl)-benzofuran-5-yl]-1H-pyridin-2-one] yielded a melting point of 268 to 269 °C. This molecule also showed an IC50 in series [1] of 38 nM.

As for `CC(C)(C)c1cc(-c2ccc[nH]c2=O)cc2c(-c3ccc(N)nc3)coc12` [Compound I-96, 3-[3-(6-Amino-pyridin-3-yl)-7-tert-butyl-benzofuran-5-yl]-1H-pyridin-2-one], the melting point was 255 to 257 °C. Also, in series [1], it took 47 nM to reach half-maximal inhibition (IC50).

In turn, `CC(C)(C)c1cc(-c2ccc[nH]c2=O)cc2c(C(=O)N3CCCC(CNS(C)(=O)=O)C3)csc12` (stereo not drawn) [Compound 114, N-{1-[7-tert-Butyl-5-(2-oxo-1,2-dihydro-pyridin-3-yl)-benzo[b]thiophene-3-carbonyl]-piperidin-3-ylmethyl}-methanesulfonamide] displayed a melting point of 175 to 177 °C. This molecule returned an IC50 in series [1] of 3 nM.

As for `CC(C)(C)c1cc(-c2ccc[nH]c2=O)cc2c(-c3ccc(CNS(C)(=O)=O)cc3)coc12` [Compound I-37, N-{4-[7-tert-Butyl-5-(2-oxo-1,2-dihydro-pyridin-3-yl)-benzofuran-3-yl]-benzyl}1-methanesulfonamide], the melting point lay in the range of 271 to 273 °C. In series [1], this molecule had an IC50 of 4 nM.

`CC(C)(C)c1cc(-c2ccc[nH]c2=O)cc2c(C(=O)N3CCC(CN)C3)coc12` (stereo not drawn) [Compound I-49] displayed a melting point above 300 °C. This molecule also yielded an IC50 in series [1] of 104 nM.
